Reference: patent US6358885B1, “Substituted phenylheterocyclic herbicides” (Mississippi State University, priority 1992, dated 2002)

Tests used:
crabgrass = test: Test B preemergence/postemergence greenhouse plant response rating 0 to 10; assay type: in vivo, Digitaria spp.; conditions: 0 to 10 scale
Procedure, shortened: (§1)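 Both application timings were run together: seeds got compound preemergence, and established seedlings (two to eighteen cm) got it postemergence. Non-phytotoxic solvent carried the chemical. Ratings are visual, versus controls, at twelve to sixteen days.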

lambsquarters = test: Test C preemergence/postemergence greenhouse plant response rating 0 to 100; assay type: in vivo, Chenopodium album; conditions: PREEMERGENCE
Procedure, shortened: (§2)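 Compounds in non-phytotoxic solvent went onto sandy loam before emergence (seeded one day earlier) or onto plants at the one-to-four leaf stage. Duck salad was treated via flood water (~2.5 cm, maintained) over silt loam.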

cotton [1] = test: Test B preemergence/postemergence greenhouse plant response rating 0 to 10; assay type: in vivo, Gossypium hirsutum; conditions: 0 to 10 scale
Procedure, shortened: as §1

duck salad = test: Test C flood test plant response rating 0 to 100; assay type: in vivo, Heteranthera limosa
Procedure, shortened: as §2

wild oat = test: Test B preemergence/postemergence greenhouse plant response rating 0 to 10; assay type: in vivo, Avena fatua; conditions: 0 to 10 scale
Procedure, shortened: as §1

blackgrass = test: as above; assay type: in vivo, Alopecurus myosuroides; conditions: 0 to 10 scale
Procedure, shortened: as §1

velvetleaf = test: Test C preemergence/postemergence greenhouse plant response rating 0 to 100; assay type: in vivo, Abutilon theophrasti; conditions: for Plant response rating, Velvetleaf: 125 g/ha, 0 to 100 scale
Procedure, shortened: as §2

cotton [2] = test: as above; assay type: in vivo, Gossypium hirsutum; conditions: for Plant response rating, Cotton: 125 g/ha, 0 to 100 scale
Procedure, shortened: as §2

barnyardgrass = test: Test C flood test plant response rating 0 to 100; assay type: in vivo, Echinochloa crus-galli
Procedure, shortened: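 Compounds in non-phytotoxic solvent applied preemergence to sandy loam one day after planting, postemergence at the 1–4 leaf stage, or to ~2.5 cm floodwater over silt loam.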

rice = test: Test B preemergence/postemergence greenhouse plant response rating 0 to 10; assay type: in vivo, Oryza sativa; conditions: 0 to 10 scale
Procedure, shortened: as §1

sugar beet = test: as above; assay type: in vivo, Beta vulgaris; conditions: 0 to 10 scale
Procedure, shortened: as §1

purple nutsedge = test: as above; assay type: in vivo, Cyperus rotundus; conditions: 0 to 10 scale
Procedure, shortened: as §1

wild buckwheat = test: Test C preemergence/postemergence greenhouse plant response rating 0 to 100; assay type: in vivo, Polygonum convolvulus; conditions: for Plant response rating, Wild buckwheat: 125 g/ha, 0 to 100 scale
Procedure, shortened: as §2

pigweed = test: as above; assay type: in vivo, Amaranthusretroflexus; conditions: for Plant response rating Pigweed: 125 g/ha, 0 to 100 scale
Procedure, shortened: as §2

wheat [3] = test: as above; assay type: in vivo, Triticum aestivum; conditions: for Plant response rating, Wheat: 125 g/ha, 0 to 100 scale
Procedure, shortened: as §2

corn = test: Test B preemergence/postemergence greenhouse plant response rating 0 to 10; assay type: in vivo, Zea mays; conditions: 0 to 10 scale
Procedure, shortened: as §1

wheat [4] = test: as above; assay type: in vivo, Triticum aestivum; conditions: 0 to 10 scale
Procedure, shortened: as §1

sorghum = test: as above; assay type: in vivo, Sorghum bicolor; conditions: 0 to 10 scale
Procedure, shortened: as §1

[5] = POSTEMERGENCE section, flood test, Rate 2 g/ha
[6] = Rate 8 g/ha, under POSTEMERGENCE head (flood test species)
[7] = Rate 31 g/ha, under POSTEMERGENCE head (flood test species)
[8] = flood test species listed under POSTEMERGENCE, 125 g/ha, 0 to 100 scale

Fc1cc(Cl)ccc1-c1nn2c(c1Br)CCCC2 [Compound 52]
7: Plant response rating, Crabgrass (crabgrass; POSTEMERGENCE, Rate 200 g/ha) | Plant response rating, Wheat (wheat [4]; Rate 200 g/ha, PREEMERGENCE) | Plant response rating, Sorghum (sorghum; Rate 200 g/ha, POSTEMERGENCE)
20: Plant response rating (0 to 100), Duck salad (duck salad; [7]) | Plant response rating (0 to 100), Pigweed (pigweed; POSTEMERGENCE, Rate 2 g/ha) | Plant response rating (0 to 100), Wheat (wheat [3]; Rate 8 g/ha, POSTEMERGENCE)
50: Plant response rating (0 to 100), Lambsquarters (lambsquarters; Rate 31 g/ha) | Plant response rating (0 to 100), Velvetleaf (velvetleaf; POSTEMERGENCE, Rate 2 g/ha) | Plant response rating (0 to 100), Pigweed (pigweed; Rate 8 g/ha, POSTEMERGENCE) | Plant response rating (0 to 100), Pigweed (pigweed; Rate 8 g/ha, PREEMERGENCE) | Plant response rating (0 to 100), Pigweed (pigweed; Rate 31 g/ha, POSTEMERGENCE) | Plant response rating, Wheat (wheat [3]; POSTEMERGENCE)
25: Plant response rating (0 to 100), Barnyardgrass 2 (barnyardgrass; [5])
5: Plant response rating, Wild oat (wild oat; POSTEMERGENCE, Rate 50 g/ha) | Plant response rating, Blackgrass (blackgrass; POSTEMERGENCE, Rate 200 g/ha) | Plant response rating, Nutsedge (purple nutsedge; Rate 200 g/ha, POSTEMERGENCE)
100: Plant response rating Lambsquarters (lambsquarters; 125 g/ha, 0 to 100 scale) | Plant response rating, Velvetleaf (velvetleaf; POSTEMERGENCE) | Plant response rating, Velvetleaf (velvetleaf; PREEMERGENCE) | Plant response rating (0 to 100), Velvetleaf (velvetleaf; Rate 31 g/ha, POSTEMERGENCE) | Plant response rating (0 to 100), Velvetleaf (velvetleaf; Rate 31 g/ha, PREEMERGENCE) | Plant response rating, Cotton (cotton [2]; POSTEMERGENCE) | Plant response rating (0 to 100), Barnyardgrass 2 (barnyardgrass; [7]) | Plant response rating Barnyardgrass 2 (barnyardgrass; [8]) | Plant response rating, Wild buckwheat (wild buckwheat; POSTEMERGENCE) | Plant response rating, Wild buckwheat (wild buckwheat; PREEMERGENCE) | Plant response rating Pigweed (pigweed; POSTEMERGENCE) | Plant response rating Pigweed (pigweed; PREEMERGENCE) | Plant response rating (0 to 100), Pigweed (pigweed; Rate 31 g/ha, PREEMERGENCE)
9: Plant response rating, Sugar beet (sugar beet; PREEMERGENCE, Rate 50 g/ha)
80: Plant response rating (0 to 100), Wild buckwheat (wild buckwheat; Rate 31 g/ha, POSTEMERGENCE)
8: Plant response rating, Wild oat (wild oat; Rate 200 g/ha, POSTEMERGENCE) | Plant response rating, Corn (corn; POSTEMERGENCE, Rate 200 g/ha) | Plant response rating, Wheat (wheat [4]; Rate 200 g/ha, POSTEMERGENCE)
1: Plant response rating, Rice (rice; Rate 200 g/ha, PREEMERGENCE) | Plant response rating, Corn (corn; PREEMERGENCE, Rate 50 g/ha)
30: Plant response rating (0 to 100), Velvetleaf (velvetleaf; Rate 8 g/ha, PREEMERGENCE) | Plant response rating (0 to 100), Wheat (wheat [3]; Rate 31 g/ha, POSTEMERGENCE)
70: Plant response rating (0 to 100), Cotton (cotton [2]; POSTEMERGENCE, Rate 2 g/ha)
3: Plant response rating, Cotton (cotton [1]; Rate 200 g/ha, PREEMERGENCE) | Plant response rating, Nutsedge (purple nutsedge; POSTEMERGENCE, Rate 50 g/ha) | Plant response rating, Sorghum (sorghum; Rate 200 g/ha, PREEMERGENCE)
10: Plant response rating, Crabgrass (crabgrass; Rate 200 g/ha, PREEMERGENCE) | Plant response rating, Cotton (cotton [1]; POSTEMERGENCE, Rate 50 g/ha) | Plant response rating, Cotton (cotton [1]; POSTEMERGENCE, Rate 200 g/ha) | Plant response rating, Sugar beet (sugar beet; POSTEMERGENCE, Rate 50 g/ha) | Plant response rating, Sugar beet (sugar beet; Rate 200 g/ha, PREEMERGENCE) | Plant response rating (0 to 100), Wild buckwheat (wild buckwheat; Rate 31 g/ha, PREEMERGENCE) | Plant response rating (0 to 100), Wheat (wheat [3]; POSTEMERGENCE, Rate 2 g/ha)
4: Plant response rating, Wild oat (wild oat; PREEMERGENCE, Rate 50 g/ha) | Plant response rating, Blackgrass (blackgrass; POSTEMERGENCE, Rate 50 g/ha) | Plant response rating, Blackgrass (blackgrass; PREEMERGENCE, Rate 50 g/ha) | Plant response rating, Rice (rice; POSTEMERGENCE, Rate 50 g/ha) | Plant response rating, Corn (corn; Rate 200 g/ha, PREEMERGENCE) | Plant response rating, Wheat (wheat [4]; POSTEMERGENCE, Rate 50 g/ha) | Plant response rating, Wheat (wheat [4]; PREEMERGENCE, Rate 50 g/ha) | Plant response rating, Sorghum (sorghum; POSTEMERGENCE, Rate 50 g/ha)
2: Plant response rating, Crabgrass (crabgrass; PREEMERGENCE, Rate 50 g/ha) | Plant response rating, Sorghum (sorghum; PREEMERGENCE, Rate 50 g/ha)
6: Plant response rating, Crabgrass (crabgrass; POSTEMERGENCE, Rate 50 g/ha) | Plant response rating, Blackgrass (blackgrass; Rate 200 g/ha, PREEMERGENCE) | Plant response rating, Rice (rice; Rate 200 g/ha, POSTEMERGENCE) | Plant response rating, Corn (corn; POSTEMERGENCE, Rate 50 g/ha)
95: Plant response rating (0 to 100), Cotton (cotton [2]; Rate 8 g/ha, POSTEMERGENCE) | Plant response rating (0 to 100), Cotton (cotton [2]; Rate 31 g/ha, POSTEMERGENCE) | Plant response rating (0 to 100), Barnyardgrass 2 (barnyardgrass; [6])
90: Plant response rating (0 to 100), Velvetleaf (velvetleaf; Rate 8 g/ha, POSTEMERGENCE)
40: Plant response rating (0 to 100), Wild buckwheat (wild buckwheat; Rate 8 g/ha, POSTEMERGENCE)
85: Plant response rating Duck salad (duck salad; [8])
60: Plant response rating, Wheat (wheat [3]; PREEMERGENCE)
0: Plant response rating (0 to 100), Lambsquarters (lambsquarters; Rate 2 g/ha) | Plant response rating (0 to 100), Lambsquarters (lambsquarters; Rate 8 g/ha) | Plant response rating, Cotton (cotton [1]; PREEMERGENCE, Rate 50 g/ha) | Plant response rating (0 to 100), Duck salad (duck salad; [5]) | Plant response rating (0 to 100), Duck salad (duck salad; [6]) | Plant response rating (0 to 100), Velvetleaf (velvetleaf; PREEMERGENCE, Rate 2 g/ha) | Plant response rating, Cotton (cotton [2]; PREEMERGENCE) | Plant response rating (0 to 100), Cotton (cotton [2]; PREEMERGENCE, Rate 2 g/ha) | Plant response rating (0 to 100), Cotton (cotton [2]; Rate 8 g/ha, PREEMERGENCE) | Plant response rating (0 to 100), Cotton (cotton [2]; Rate 31 g/ha, PREEMERGENCE) | Plant response rating, Rice (rice; PREEMERGENCE, Rate 50 g/ha) | Plant response rating, Nutsedge (purple nutsedge; PREEMERGENCE, Rate 50 g/ha) | Plant response rating, Nutsedge (purple nutsedge; Rate 200 g/ha, PREEMERGENCE) | Plant response rating (0 to 100), Wild buckwheat (wild buckwheat; PREEMERGENCE, Rate 2 g/ha) | Plant response rating (0 to 100), Wild buckwheat (wild buckwheat; Rate 8 g/ha, PREEMERGENCE) | Plant response rating (0 to 100), Pigweed (pigweed; PREEMERGENCE, Rate 2 g/ha) | Plant response rating (0 to 100), Wheat (wheat [3]; PREEMERGENCE, Rate 2 g/ha) | Plant response rating (0 to 100), Wheat (wheat [3]; Rate 8 g/ha, PREEMERGENCE) | Plant response rating (0 to 100), Wheat (wheat [3]; Rate 31 g/ha, PREEMERGENCE)
